Where two headings read alike, the source gives them in different places.
Key:
[1] = Extrapolation to humans of the PK parameter values observed in dogs; assay type: in vivo; settings: human, for a body weight of 64 kg in humans, extrapolated from dogs, read-out: Vdss
Excerpt: As the pharmacokinetic profiles, i.e., the pharmacokinetic parameter values, are identical in humans and dogs, just as in all […] animals, it is possible to extrapolate to humans the PK parameter values observed in dogs.

[2] = Stability in acidic gastric medium; assay type: physicochemical
[3] = cited from earlier work
[4] = Stability of the plasma extract in the injection solvent at about +4° C.; assay type: physicochemical, human; settings: for Deviation T0 + 24 h/T0: stored on an autosampler
Procedure: The plasma extracts will be analyzed repeatedly during the validation period in order to check for possible degradation of the compounds during storage in the solvent at about +4° C. The evaluation of stability is based on the back-calculated concentrations, which should be within ±15% (except for LOQ±20%), and an acceptable chromatographic peak shape.

[5] = Stability of melatonin in frozen human plasma during freeze-thaw cycles (HPLC-MS/MS); assay type: in vitro ADME; settings: human plasma samples stored at about −20° C.
Procedure: Between each cycle, the samples will be maintained under storage temperature conditions (about −20° C.) identical to those used for normal analysis of the samples.

C=C1c2[nH]c3ccc(OC)cc3c2CCN1C(C)=O [Valentonin, 2-acetyl-6-methoxy-1-methylene-3,4-dihydro-β-carboline]
Vd ([1]; in vivo): 320 L | Stability in acidic gastric medium [2]: completely hydrolyzed in acidic gastric medium | Stability in acidic gastric medium ([2]; listed as VLT): completely degraded in acidic gastric medium

COc1ccc2[nH]c3c(c2c1)CCN=C3C [6-Methoxyharmalan, 6-methoxy-1-methyl-3,4-dihydro-β-carboline]
Vd ([1]; plasma, intravenous): 960 L

COc1ccc2[nH]cc(CCNC(C)=O)c2c1 [melatonin]
Maximum plasma concentrations observed from 1 a.m. onwards, mean value ([3]; 12 older subjects): 45.6 pg/mL | Maximum plasma concentrations observed from 1 a.m. onwards, mean value ([3]; 12 young subjects): 54.5 pg/mL | Deviation T0 + 24 h/T0 ([4]; 2 pg/ml): 1.65% | Deviation T0 + 24 h/T0 ([4]; 200 pg/ml): 3.33% | Time sample extracts were stable in the injection solvent ([4]; injection vials stored at about +4° C., after the first injection): at least 24 hours | Effect of freeze-thaw cycles on stability [5]: no effect on the stability
